The source of these data is ChEMBL document CHEMBL1649320, “Development of daptomycin nonsusceptibility with heterogeneous vancomycin-intermediate resistance and oxacillin susceptibility in methicillin-resistant Staphylococcus aureus during high-dose daptomycin treatment” (2010).

Structures are written as SMILES. Converted amounts (≈) assume the structure as drawn.

Common to all, as to assay type: functional
In experiment [1] the test system is Staphylococcus aureus. The experiment is described as follows: Antimicrobial activity against methicillin-resistant Staphylococcus aureus CGK5 by Etest method.
The test system of experiment [2] is Staphylococcus aureus. The experiment in a line: Antimicrobial activity against methicillin-resistant Staphylococcus aureus CGK7 by Etest method.
Experiment [3] has as its system Staphylococcus aureus. The experiment in a line: Antimicrobial activity against methicillin-resistant Staphylococcus aureus CGK1 by Etest method.
Experiment [4] deals with Staphylococcus aureus. The experiment is described as follows: Antimicrobial activity against methicillin-resistant Staphylococcus aureus CGK4 by Etest method.
For experiment [5], the system named is Staphylococcus aureus. The experiment is described as follows: Antimicrobial activity against methicillin-resistant Staphylococcus aureus CGK6 by Etest method.
The subject of experiment [6] is Staphylococcus aureus. The experiment is described as follows: Antimicrobial activity against methicillin-resistant Staphylococcus aureus CGK2 by Etest method.
In experiment [7] the test system is Staphylococcus aureus. The experiment in a line: Antimicrobial activity against methicillin-resistant Staphylococcus aureus CGK8 by Etest method.
In experiment [8] the test system is Staphylococcus aureus. The experiment in a line: Antimicrobial activity against methicillin-resistant Staphylococcus aureus CGK3 by Etest method.

Regarding `Cc1onc(-c2ccccc2)c1C(=O)N[C@@H]1C(=O)N2[C@@H]1SC(C)(C)[C@@H]2C(=O)O` [OXACILLIN], the minimal inhibitory concentration (MIC) with Staphylococcus aureus [1] was greater than 256 µg/mL; with Staphylococcus aureus [2] it was 3 µg/mL (≈ 7.47 µM); with Staphylococcus aureus [3], 32 µg/mL (≈ 79.7 µM); against Staphylococcus aureus [4] it was 16 µg/mL (≈ 39.9 µM); against Staphylococcus aureus [5] it was 1.5 µg/mL (≈ 3.74 µM); against Staphylococcus aureus [6], greater than 256 µg/mL. The MIC against Staphylococcus aureus [7] is 1 µg/mL (≈ 2.49 µM); in the experiment with Staphylococcus aureus [8], greater than 256 µg/mL.

Take `CCCCCCCCCC(=O)N[C@@H](Cc1c[nH]c2ccccc12)C(=O)N[C@H](CC(N)=O)C(=O)N[C@@H](CC(=O)O)C(=O)N[C@@H]1C(=O)NCC(=O)N[C@@H](CCCN)C(=O)N[C@@H](CC(=O)O)C(=O)N[C@H](C)C(=O)N[C@@H](CC(=O)O)C(=O)NCC(=O)N[C@H](CO)C(=O)N[C@@H]([C@H](C)CC(=O)O)C(=O)N[C@@H](CC(=O)c2ccccc2N)C(=O)O[C@@H]1C`: the MIC came out at 0.75 µg/mL (≈ 0.463 µM) with Staphylococcus aureus [1]; 4 µg/mL (≈ 2.47 µM) with Staphylococcus aureus [2]; 0.5 µg/mL (≈ 0.309 µM) in the experiment with Staphylococcus aureus [3]; 0.38 µg/mL (≈ 0.234 µM) against Staphylococcus aureus [4]; 4 µg/mL (≈ 2.47 µM) in the experiment on Staphylococcus aureus [5]; 0.75 µg/mL (≈ 0.463 µM) in the experiment with Staphylococcus aureus [6]. In addition, the MIC was 4 µg/mL (≈ 2.47 µM) against Staphylococcus aureus [7] and 0.75 µg/mL (≈ 0.463 µM) against Staphylococcus aureus [8].

Take `CC(=O)N[C@@H]1[C@H](Oc2c3cc4cc2Oc2ccc(cc2Cl)[C@@H](O[C@@H]2O[C@@H](CO)[C@@H](O)[C@H](O)[C@@H]2NC(C)=O)[C@@H]2NC(=O)[C@H](NC(=O)[C@@H]4NC(=O)[C@H]4NC(=O)[C@@H](Cc5ccc(c(Cl)c5)O3)NC(=O)[C@H](N)c3ccc(O)c(c3)Oc3cc(O)cc4c3)c3ccc(O)c(c3)-c3c(O[C@H]4O[C@H](CO)[C@@H](O)[C@@H](O)[C@@H]4O)cc(O)cc3[C@@H](C(=O)O)NC2=O)O[C@@H](CO)[C@@H](O)[C@@H]1O`: the MIC in the experiment on Staphylococcus aureus [1] was determined as 2 µg/mL (≈ 1.13 µM); in the experiment with Staphylococcus aureus [2], 3 µg/mL (≈ 1.7 µM); in the experiment with Staphylococcus aureus [3], 1 µg/mL (≈ 0.566 µM); against Staphylococcus aureus [4], 1 µg/mL (≈ 0.566 µM); against Staphylococcus aureus [5], 2 µg/mL (≈ 1.13 µM); with Staphylococcus aureus [6], 1.5 µg/mL (≈ 0.849 µM). Moreover, the MIC was determined as 2 µg/mL (≈ 1.13 µM) against Staphylococcus aureus [7] and 1.5 µg/mL (≈ 0.849 µM) against Staphylococcus aureus [8].

With `CC(=O)NC[C@H]1CN(c2ccc(N3CCOCC3)c(F)c2)C(=O)O1` [LINEZOLID], the values for the MIC against Staphylococcus aureus [5] and in the experiment on Staphylococcus aureus [7] were 1 µg/mL (≈ 2.96 µM) and 1.5 µg/mL (≈ 4.45 µM), respectively.

In the case of `CN[C@H](CC(C)C)C(=O)N[C@H]1C(=O)N[C@@H](CC(N)=O)C(=O)N[C@H]2C(=O)N[C@H]3C(=O)N[C@H](C(=O)N[C@H](C(=O)O)c4cc(O)cc(O)c4-c4cc3ccc4O)[C@H](O)c3ccc(c(Cl)c3)Oc3cc2cc(c3O[C@@H]2O[C@H](CO)[C@@H](O)[C@H](O)[C@H]2O[C@H]2C[C@](C)(N)[C@H](O)[C@H](C)O2)Oc2ccc(cc2Cl)[C@H]1O` [VANCOMYCIN], the MIC in the experiment with Staphylococcus aureus [2] was 3 µg/mL (≈ 2.07 µM); against Staphylococcus aureus [3] it was 1.5 µg/mL (≈ 1.04 µM); against Staphylococcus aureus [4] it was 1.5 µg/mL (≈ 1.04 µM); against Staphylococcus aureus [6], 1.5 µg/mL (≈ 1.04 µM).

Broadly, the MIC is the smallest concentration in the dilution series that meets the test's criterion for growth inhibition.
